The assay addresses T1, Human 5HT6 Receptor (Homo sapiens, UniProt P50406).
T1 construct: expressed in transfected cells; host or cells: HEK293 cells
As to the kind of experiment: Binding Assay for Human 5HT6 Receptor. Particulars: [3H]LSD 1.5 nM; human recombinant receptor expressed in HEK293 cells. The procedure:
Binding Assay for Human 5HT6 Receptor
Receptor source: Human recombinant expressed in HEK293 cells
Radioligand: [^3H]LSD (60-80 Ci/mmol)
Final ligand concentration—[1.5 nM]
Non-specific determinant: Methiothepin mesylate—[0.1 μM]
Reference compound: Methiothepin mesylate
Positive control: Methiothepin mesylate
Reactions are carried out in 50 mM TRIS-HCl (pH 7.4) containing 10 mM MgCl2, 0.5 mM EDTA for 60 minutes at 37° C. The reaction is terminated by rapid vacuum filtration onto glass fiber filters. Radioactivity trapped onto the filters is determined and compared to control values in order to ascertain any interactions of test compound(s) with the cloned serotonin—5HT6 binding site.
• Monsma F. J. Jr., et al., Molecular Cloning and Expression of Novel Serotonin Receptor with High Affinity for Tricyclic Psychotropic Drugs. Mol. Pharmacol. (43): 320-327 (1993).

Molecules are shown by their SMILES.

T1 sequence (P50406 whole entry): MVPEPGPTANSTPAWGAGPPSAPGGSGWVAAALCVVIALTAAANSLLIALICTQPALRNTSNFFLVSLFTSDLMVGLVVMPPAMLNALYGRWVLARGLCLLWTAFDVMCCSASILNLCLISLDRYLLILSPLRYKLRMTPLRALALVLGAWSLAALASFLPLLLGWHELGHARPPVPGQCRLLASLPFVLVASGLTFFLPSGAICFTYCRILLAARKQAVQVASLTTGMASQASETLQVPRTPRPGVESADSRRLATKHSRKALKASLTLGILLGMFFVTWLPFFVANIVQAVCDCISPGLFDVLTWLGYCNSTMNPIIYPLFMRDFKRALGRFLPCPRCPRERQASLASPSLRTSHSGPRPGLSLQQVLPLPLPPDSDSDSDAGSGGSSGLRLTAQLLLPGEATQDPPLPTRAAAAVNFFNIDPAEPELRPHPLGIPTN

For the compound `COc1ccc2c(c1)c(C1CCN(C)C1)c1n2S(=O)(=O)c2ccccc2-1` (stereo not shown) [drawing 20], the IC50 amounted to 383 nM and the Ki stood at 172 nM.

Regarding `COc1ccc2c(c1)c(C1CCN(C)C1)c1n2S(=O)(=O)c2ccccc2-1` (stereo not shown) [drawing 19], the IC50 was 205 nM and the inhibitory constant (Ki) is 88.1 nM.

What is called IC50 is the concentration that gives 50% inhibition. For orientation: Ki means the dissociation constant of the complex between target and ligand, obtained from inhibition or displacement.

For the origin of these results see US7388024B2, “Indeno[2,1A]indenes and isoindolo[2,1-A]indoles” (Suven Life Sciences Limited, priority 2004, dated 2008).
